Results: patent US20110082133A1, “PYRIDONE COMPOUNDS” (priority 2008, published 2011)
Structures can show the parent of a compound that is named as a salt.

Experiments:
rat EP3β receptor = target: T1, rat EP3β receptor (Rattus norvegicus, UniProt P34980); test: Rat EP3 receptor agonistic/antagonistic action (intracellular Ca2+, FLIPR, HEK293 stable expression cells); format: cell-based; conditions: inhibition of intracellular Ca2+ increasing action by PGE2; read-out: RatEP3 Antagonistic Action IC50
T1 construct: expressed in transfected cells
T1 sequence (P34980 1-361 isoform P34980-2): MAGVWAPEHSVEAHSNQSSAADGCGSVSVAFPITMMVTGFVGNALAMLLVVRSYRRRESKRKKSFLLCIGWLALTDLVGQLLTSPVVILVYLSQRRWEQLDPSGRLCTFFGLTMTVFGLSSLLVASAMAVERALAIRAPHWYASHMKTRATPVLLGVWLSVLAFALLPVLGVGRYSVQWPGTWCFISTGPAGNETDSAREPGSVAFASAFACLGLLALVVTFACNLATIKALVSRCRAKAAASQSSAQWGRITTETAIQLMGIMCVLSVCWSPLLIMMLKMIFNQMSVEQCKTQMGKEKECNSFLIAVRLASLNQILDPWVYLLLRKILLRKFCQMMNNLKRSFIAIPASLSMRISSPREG
Experimental: Using rat EP1 or rat EP3β receptor stable expression cells, the intracellular Ca^2+ concentration was measured using a fluorescent imaging plate reader (FLIPR manufactured by Molecular Devices Corporation). The agonistic activity was evaluated by the intracellular Ca^2+ increasing action of the test compound, and the antagonistic activity was evaluated by the inhibiting action of the test compound on the intracellular Ca^2+ increasing action by PGE2.
The cDNA of the rat EP 1 or EP3β receptor was subcloned into an expression vector (pcDNA3.1-V5-His-topo, manufactured by Invitrogen Corporation). This expression vector was introduced into HEK293 cells (American Type Culture Collection) to prepare a rat EP1 or EP3β receptor stable expression cell line. These cells were seeded onto a 96-well poly-D-lysin treated black wall clear bottom plate (manufactured by Becton, Dickinson and Company) at 2 to 3×10^4 cell/well, and used for the experiment the next day. The measurement of the intracellular Ca^2+ concentration was carried out by an FLIPR calcium 3 assay kit (manufactured by Molecular Devices Corporation). The culture medium of each well was removed by suction and replaced with a loading buffer (Hank's balanced salt solution containing 20 mM HEPES-NaOH (pH 7.4), 2.5 mM Probenecid, 0.1% bovine serum albumin, and a color), followed by incubating at room temperature for 3 hours and loading a color. For the evaluation of the agonistic action, the change in the intracellular Ca^2+ concentration was determined from the difference in the maximum value of the intracellular Ca^2+ concentration after the addition of the test compound and the value before the addition of the test compound. For the evaluation of the antagonistic action, after incubating the test compound for 5 minutes, PGE2 was added thereto to determine the change in the intracellular Ca^2+ concentration by PGE2.
Further, NE means that the action has no significance.

rat EP4 receptor = rat EP4 receptor (Rattus norvegicus, UniProt P43114); test: EP4 receptor agonistic action in rat (cAMP increasing action in rat EP4 receptor expression CHO-K1 cells); format: cell-based; set-up: expressed in transfected cells; conditions: cAMP increasing action by 1 μM PGE2 taken as 100%
Sequence of rat EP4 receptor (P43114 whole entry): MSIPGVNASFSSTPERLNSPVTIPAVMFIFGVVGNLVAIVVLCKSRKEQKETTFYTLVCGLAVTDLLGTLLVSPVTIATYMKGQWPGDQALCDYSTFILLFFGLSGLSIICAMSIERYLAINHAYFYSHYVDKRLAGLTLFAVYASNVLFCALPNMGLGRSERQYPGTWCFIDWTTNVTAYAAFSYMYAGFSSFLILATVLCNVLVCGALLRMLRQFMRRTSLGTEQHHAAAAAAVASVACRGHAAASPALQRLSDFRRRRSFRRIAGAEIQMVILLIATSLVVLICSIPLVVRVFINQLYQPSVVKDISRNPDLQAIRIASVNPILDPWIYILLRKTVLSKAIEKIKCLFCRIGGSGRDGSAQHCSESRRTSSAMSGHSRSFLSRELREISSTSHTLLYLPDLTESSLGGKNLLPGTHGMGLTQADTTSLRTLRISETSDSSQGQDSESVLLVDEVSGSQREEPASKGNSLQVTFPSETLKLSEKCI
Experimental: The agonistic activity was evaluated by the cAMP increasing action in the rat EP4 receptor expression cells. The rat EP4 receptor expression vector was introduced into CHO-K1 cells (American Type Culture Collection) to prepare a rat EP4 receptor stable expression cell line. These cells were seeded onto a 96-well microplate at 2×10^4 cell/well, and used for the experiment the next day. The culture medium of each well was removed by suction, 100 μL/well of an assay culture medium (2 μM indomethacin, 0.1% bovine serum albumin-containing α-MEM) was added thereto, and incubated at 37° C. for 1 hour. The culture medium was removed again by suction, and replaced with 100 μL/well of an assay culture medium comprising a test compound and 1 mM IBMX (3-isobutyl-1-methylxanthine). After incubating at 37° C. for 30 minutes, the culture medium was removed by suction, 100 μL/well of a cell lysate (0.2% Triton-X100-containing phosphate buffer physiological saline) was put thereinto, and the plate was shaken for 10 minutes. Using a cAMP femto 2 kit (manufactured by Cis Bio International), the cAMP concentration in the cell lysate was measured. Further, the cAMP increasing action (%) was calculated with the cAMP increasing action by 1 μM PGE2 was taken as 100%.

TNF-α production = test: In vivo TNF-α production inhibiting action in rat (LPS-induced plasma TNF-α); set-up: species or system SD male rats; conditions: oral administration 1 hour before LPS (10 μg/kg i.v.), plasma TNF-α 90 minutes after LPS
Experimental: LPS (10 μg/kg) was administered to caudal veins of SD male rats, and after 90 minutes from the administration, the heparin blood was collected from the abdominal vena cava to prepare a plasma. The test compound was orally administered 1 hour before the administration of LPS. The amount of TNF-α in the plasma was measured using a BD OptEIA rat TNF ELISA set (manufactured by Becton, Dickinson and Company) according to the attached method. The inhibitory rate by the test compound was determined from the amount of TNF-α in plasma in a control group (administered with a solvent).

Compound	IC50 (rat EP3β receptor) [µM]	cAMP increasing action (%) at 10 μM (rat EP4 receptor) [%]	ED50 (TNF-α production) [mg/kg]
CN(Cc1c(Cl)cc(Cl)c(=O)n1CCc1ccc(C(=O)O)cc1)c1cccc(Cl)c1 [Example 160]	≥ 10	79	2.3
O=C(O)c1ccc(CCn2c(CN3CCc4ccc(F)cc43)c(Cl)cc(Cl)c2=O)cc1 [Example 9, 4-(2-{3,5-dichloro-6-[(6-fluoro-2,3-dihydro-1H-indol-1-yl)methyl]-2-oxopyridin-1(21-1)-yl}ethyl)benzoic acid]	> 10	65	4.3
O=C(O)c1ccc(CCn2c(CNc3cccc(OC(F)(F)F)c3)c(Cl)cc(Cl)c2=O)cc1 [Example 107]	> 10	76	1
CCC[C@H]1CCCN1Cc1c(Cl)cc(Cl)c(=O)n1CCc1ccc(C(=O)O)cc1 [Example 17, 4-{2-[3,5-dichloro-2-oxo-6-{[(2S)-2-propylpyrrolidin-1-yl]methyl}pyridin-1(2H)-yl]ethyl}benzoic acid trifluoroacetate]	> 10	58	0.15
